The target of one data set is T1, p75^NTR receptor (Homo sapiens, UniProt P08138).
T1 construct: the clone Bep 75, stably expressing the complete form of the human p75^NTR receptor; expressed in transfected cells; host or cells: SK-N-BE Bep 75 (human neuroblastoma clone stably expressing the receptor); the soluble p75NTR-AP came from the supernatant of transiently transfected HEK293 cells
T1 sequence (P08138 29-427): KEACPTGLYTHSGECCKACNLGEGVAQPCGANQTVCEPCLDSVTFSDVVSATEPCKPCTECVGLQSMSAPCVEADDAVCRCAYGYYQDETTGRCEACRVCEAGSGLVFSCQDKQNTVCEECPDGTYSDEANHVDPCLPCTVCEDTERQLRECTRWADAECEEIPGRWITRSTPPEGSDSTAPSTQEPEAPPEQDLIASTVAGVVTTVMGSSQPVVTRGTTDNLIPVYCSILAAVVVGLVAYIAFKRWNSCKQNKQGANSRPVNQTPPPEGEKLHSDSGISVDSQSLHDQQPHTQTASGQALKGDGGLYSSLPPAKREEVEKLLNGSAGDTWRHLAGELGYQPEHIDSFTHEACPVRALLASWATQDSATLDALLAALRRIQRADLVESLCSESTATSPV
As to the kind of experiment: Study of the dimerization of the p75NTR receptor independently of its ligand (binding of soluble p75NTR-alkaline phosphatase to SK-N-BE Bep 75 cells). Particulars: 1 hour preincubation at 37° C., soluble p75NTR-alkaline phosphatase 10 nM. The procedure: (§1) The SK-N-BE parent strain (human neuroblastoma) and the clone Bep 75, stably expressing the complete form of the human p75^NTR receptor (SK-N-BE Bep 75) are conventionally cultured in an RPMI culture medium containing FCS (5%), sodium pyruvate (1 mM) and glutamine (4 mM). For the SK-N-BE Bep 75 cells, hygromycin (200 μl/20 ml of medium) is added as selection agent.
Study of the Dimerization of the p75^NTR Receptor Independently of its Ligand
The study of the dimerization of the p75^NTR receptor is performed on a cell suspension of the strain SK-N-BE Bep 75. The cells (2.5×10^4 cells/well) are placed in wells (96-well plate) for 24 hours, and then preincubated for 1 hour at 37° C. in the presence or absence of the compounds according to the invention. Supernatent, obtained from a culture of human cells of HEK293 renal origin expressing, after 48 hours of transfection, and secreting a soluble form of the p75^NTR receptor (extracellular part of the receptor) coupled to an alkaline phosphatase, the latter at a final concentration of 10 nM, is then added. The quantification of the specific binding of the soluble receptor to the receptor present on SK-N-BE Bep 75 cells is determined by measuring the enzyme activity of the alkaline phosphatase after incubation of the cells for 1 hour at 37° C. in the presence of the supernatant. After filtering and transferring the filters into 24-well plates, the alkaline phosphatase activity is determined by adding CDP-Star chemoluminescent substrate (ready-to-use, Roche).

The test system of data set [1] is strains of human neuroblastomas SH-SY-5Y and SK-N-BE Bep 75. Kind of data set: Measurement of the apoptosis (cell death detection ELISA, cytoplasmic histones associated with DNA fragments). In kind it is cell-based. The settings on record: SH-SY-5Y (48 hours) and SK-N-BE Bep 75 (24 hours), NGF 10 ng/ml or beta-amyloid peptide 10 μM, cell line not stated, read-out: IC50 in the apoptosis test. The procedure:
The SH-SY-5Y strain (human neuroblastoma) is conventionally cultured in a DMEM culture medium (Dulbecco's Modified Eagle's Medium) (Gibco BRL, France) containing FCS (5%) (fetal calf serum) (Boehringer Mannheim, Germany), sodium pyruvate (1 mM) and glutamine (4 mM) in collagen-covered culture flasks (Becton Dickinson, France).
as §1
Measurement of the Apoptosis
The cells (strains of human neuroblastomas SH-SY-5Y and SK-N-BE Bep 75) are placed in Petri dishes 35 mm in diameter (Biocoat collagenl, (10^5 cells/well)) in a suitable culture medium containing 5% FCS, for 24 hours. The culture medium is then removed, the cells are rinsed with PBS (Dulbecco's Phosphate-buffered saline), and then either fresh medium containing 5% FCS, or medium containing NGF (at a concentration of 10 ng/ml), or beta-amyloid peptide (A1β1-40) (at a concentration of 10 μM) is then added, in the presence or absence of the compounds according to the invention. The apoptosis levels are measured 48 hours after the treatments in the case of the strain SH-SY-5Y, and 24 hours later in the case of the strain SK-N-BE Bep 75, by quantifying the cytoplasmic histones associated with the DNA fragments (cell death detection ELISA, Boehringer Mannheim, Germany). The apoptosis levels are expressed as the amount of oligonucleosomes/10^5 cells. Each value corresponds to the average of 9 experimental points distributed over 3 independent experiments.

The values that follow come from patent publication US8518947B2, “(Heterocycle/tetrahydropyridine)-(piperazinyl)-1-alcanone and (heterocycle/dihydropyrrolidine)-(piperazinyl)-1-alcanone derivatives, and use thereof as p75 inhibitors” (Sanofi, priority 2009, dated 2013).

The molecule `CC1CN(c2cnccn2)CC(C)N1CC(=O)N1CC=C(c2cccc3ccsc23)CC1` (stereo not shown) [Compound 1, 1-(4-benzo[b]thiophen-7-yl-3,6-dihydro-2H-pyridin-1-yl)-2-(3,5-dimethyl-2,3,5,6-tetrahydro[1,2′]bipyrazinyl-4-yl)ethanone] gave an IC50 on p75^NTR receptor of 0.08 nM. For `C[C@@H]1CN(c2ccc(C(F)(F)F)cn2)[C@@H](C)CN1CC(=O)N1CC=C(c2cccc3ccoc23)CC1` [Compound 14, 1-(4-benzofuran-7-yl-3,6-dihydro-2H-pyridin-1-yl)-2-[(2R,5S)-2,5-dimethyl-4-(5-trifluoromethylpyridin-2-yl)piperazin-1-yl]ethanone], the IC50 in data set [1] was found to be 1.33 nM; on p75^NTR receptor it was 1.09 nM. As for `C[C@@H]1CN(c2ccc3ccccc3n2)C[C@H](C)N1CC(=O)N1CC=C(c2cccc3ccsc23)CC1` [Compound 19, 1-(4-benzo[b]thiophen-7-yl-3,6-dihydro-2H-pyridin-1-yl)-2-((2S,6R)-2,6-dimethyl-4-quinolin-2-ylpiperazin-1-yl)ethanone], in data set [1], the IC50 is 1.07 nM. Molecule `C[C@@H]1CN(c2ccc(C(F)(F)F)cn2)C[C@H](C)N1CC(=O)N1CC=C(c2cccc3ccoc23)CC1` [Compound 34, 1-(4-benzofuran-7-yl-3,6-dihydro-2H-pyridin-1-yl)-2-[(2S,6R)-2,6-dimethyl-4-(5-trifluoromethylpyridin-2-yl)piperazin-1-yl]ethanone] showed a melting point of 138 to 139 °C. Moreover, the 50% inhibitory concentration (IC50) in data set [1] amounted to 3.39 nM. At p75^NTR receptor, this molecule returned a concentration for half-maximal inhibition (IC50) of 0.94 nM. `C[C@@H]1CN(c2ncc(F)cn2)C[C@H](C)N1CC(=O)N1CC=C(c2cccc3ccoc23)CC1` [Compound 36, 1-(4-benzofuran-7-yl-3,6-dihydro-2H-pyridin-1-yl)-2-[(2S,6R)-4-(5-fluoropyrimidin-2-yl)-2,6-dimethylpiperazin-1-yl]ethanone] displayed an IC50 at p75^NTR receptor of 20 nM. In the case of `O=C(CN1CCN(c2ccc(C(F)(F)F)cn2)CC1)N1CC=C(c2c[nH]c3ccccc23)CC1` [Compound 109, 1-[4-(1H-indol-3-yl)-3,6-dihydro-2H-pyridin-1-yl]-2-[4-(5-trifluoromethylpyridin-2-yl)piperazin-1-yl]ethanone], the melting point was 220 to 222 °C. On the same count and under the same terms, for `C[C@@H]1CN(c2ccc3ccccc3n2)C[C@H](C)N1CC(=O)N1CC=C(c2c[nH]c3ccccc23)CC1` [Compound 110, 2-((2S,6R)-2,6-dimethyl-4-quinolin-2-yl-piperazin-1-yl)-1-[4-(1H-indol-3-yl)-3,6-dihydro-2H-pyridin-1-yl]ethanone] the value was 198 to 200 °C; for `O=C(CN1CCN(c2ccc(Cl)c(Cl)n2)CC1)N1CC=C(c2cccc3ccsc23)CC1` [Compound 112, 1-(4-benzo[b]thiophen-7-yl-3,6-dihydro-2H-pyridin-1-yl)-2-[4-(5,6-dichloropyridin-2-yl)piperazin-1-yl]ethanone], 89 to 90 °C; for `O=C(CN1CCN(c2cccc(Br)n2)CC1)N1CC=C(c2cccc3ccsc23)CC1` [Compound 113, 1-(4-benzo[b]thiophen-7-yl-3,6-dihydro-2H-pyridin-1-yl)-2-[4-(6-bromopyridin-2-yl)piperazin-1-yl]ethanone], 80 to 81 °C. `Cc1cc2cc(C3=CCN(C(=O)CN4CCN(c5ccc6ccccc6n5)CC4)CC3)ccc2s1` [Compound 114, 1-[4-(2-methylbenzo[b]thiophen-5-yl)-3,6-dihydro-2H-pyridin-1-yl]-2-(4-quinolin-2-ylpiperazin-1-yl)ethanone] showed a melting point of 189 to 190 °C. `Cc1cc2cc(C3=CCN(C(=O)CN4CCN(c5cccc(C(F)(F)F)n5)CC4)CC3)ccc2s1` [Compound 116, 1-[4-(2-methylbenzo[b]thiophen-5-yl)-3,6-dihydro-2H-pyridin-1-yl]-2-[4-(6-trifluoromethylpyridin-2-yl)piperazin-1-yl]ethanone]: the melting point was in the range of 121 to 123 °C. The same measure, in the same setting: for `Cc1cc2cc(C3=CCN(C(=O)CN4CCN(c5ccnc6cc(Cl)ccc56)CC4)CC3)ccc2s1` [Compound 117, 2-[4-(7-chloroquinolin-4-yl)piperazin-1-yl]-1-[4-(2-methylbenzo[b]thiophen-5-yl)-3,6-dihydro-2H-pyridin-1-yl]ethanone] the value was 90 to 93 °C; for `O=C(CN1CCN(c2ccc(C(F)(F)F)cn2)C(=O)C1)N1CC=C(c2nccc3sccc23)CC1` [Compound 118, 4-[2-oxo-2-(4-thieno[3,2-c]pyridin-4-yl-3,6-dihydro-2H-pyridin-1-yl)ethyl]-1-(5-trifluoromethylpyridin-2-yl)piperazin-2-one], 145 to 148 °C.

What is called IC50 is the concentration that gives 50% inhibition. The melting point is the temperature of the solid-liquid transition.
